According to paper PMC12128024, “Copper(II) Cyclopeptides with High ROS-Mediated Cytotoxicity” (Bioconjugate Chemistry, 2025):
Like-named read-outs stand apart in the source and are kept apart here. *1 amine or outer side, *2 acyl side, *3 side chain or, on linkers, in order; H or OH if unused. Where a SMILES comes first, the peptide text is derived from it. [ ]: non-standard residue; d: D form. X1 = O=C(c1ccc(-c2ccc(N[*:1])cn2)nc1)[*:2]; βAla = NCCC(=O)O

Key:
[1] = Fluorescence titration of cyclopeptides with Cu(II) ions (DynaFit fit); assay type: binding; conditions: 2 μM cyclopeptide, 1 mM phosphate buffer, 10 mM NaCl, pH 6.5; 1: 1:2 model (cyclopeptide:metal); 2: simplified model with 1:1 and 2:1 species; read-out: global dissociation constant K D
Source text: While the 2,2′-bipyridine ligand is known to be weakly emissive and for all practical purposes considered nonfluorescent, , the 5′-amido-[2,2′-bipyridine]-5-carboxamide unit in the βAlaBpy building block is highly emissive, displaying an intense emission band at c.a. 410 nm with a quantum yield of 0.37. Furthermore, the fluorescence of the βAlaBpy units is quenched upon coordination to a wide range of divalent transition metal ions. We exploited this property to monitor the coordinative properties of cyclopeptides 1 and 2 in the presence of labile Cu(II) ions in aqueous media. Thus, we measured the emission spectra of 2 μM solutions of the cyclopeptides 1 and 2 in 1 mM phosphate buffer and 10 mM NaCl, pH 6.5, upon excitation at 308 nm in the presence of increasing concentrations of Cu(II) ions. […] Therefore, the affinity of the first part of the titrations cannot be determined with this experiment as it is too strong. […]
5.2. Fluorescence titration experiments
Luminescence experiments were made with a Varian Cary Eclipse Fluorescence spectrophotometer coupled to a Cary Single Cell Peltier accessory (Agilent Technologies) temperature controller. […]
emission spectrum was recorded (λex= 308 nm; λem= 410 nm) after each addition. […]

NCI/ADR-RES cells [2] = experiment: ICP-MS internalization study (intracellular Cu accumulation); assay type: cell-based; conditions: 1 µM compound, 48 h, metallopeptides 1 eq. cyclopeptide + 1 eq. Cu(II)
Method: To evaluate the ability of the Cu(II) metallopeptide systems to internalize in cancer cells, ICP-MS studies were performed in NCI/ADR-RES cells after 48 h of incubation with cyclopeptides 1 and 2, as well as their corresponding 1/Cu(II) and 2/Cu(II) metallopeptide derivatives formed by mixing each cyclopeptide with 1 equiv Cu(II), and using CuCl2·2H2O both as a Cu(II) source and a control.
7.1. General methods and materials
ICP Measurements were conducted employing an Agilent 7900 ICP-MS system (Agilent Technologies, Tokyo, Japan). The sample introduction system was comprised of an autosampler, a double-pass spray chamber with Peltier system, a glass concentric nebulizer (MicroMist low-flow nebulizer, Glass Expansion, West Melbourne, Australia), and a quartz torch.
Quantification of copper concentrations was achieved using Agilent ICP-MS MassHunter 5.1, (Version D.01.01 Agilent Technologies, Tokyo, Japan). The parameters for the ICP-MS device were as follows: RF Power, 1550 W; Sample Depth, 8; Carrier Gas, 1.1 L/min; Nebulizer Pump […]
Roswell Park Memorial Institute 1640 medium (RPMI), fetal bovine serum (FBS), penicillin, and streptomycin were purchased from Invitrogen Thermo Fisher.
Ovarian tumour NCI/ADR-RES cells, obtained from the European Collection of Authenticated Cell Cultures (ECACC), were cultured at 37 °C in a 5% CO2 atmosphere in RPMI medium containing 10% FBS and supplemented with 50 U/mL penicillin and 50 U/mL streptomycin, in 75 cm2 cell culture flasks. All cell experiments were performed at 37 °C in a 5% CO 2 atmosphere with this modified RPMI, referred as “medium” or “culture medium”.
7.3. […]
The culture medium was then replaced with 3 mL of fresh medium containing 1 µM of the compound [Cu(II) (CuCl₂·2H₂O), cyclopeptide ( 1 or 2), or metallopeptide system [1/Cu(II) or 2/Cu(II); 1 eq. cyclopeptide + 1 eq. […] Lysates were digested at 95 °C overnight, diluted with 1% HNO₃ to a final volume of 5 mL, and analyzed by ICP-MS. The Cu(II) content in the culture medium (3 mL) was also measured using the same technique, yielding a value of 41.46 ng. […]

[3] = test system: HCT-116 (colon carcinoma); conditions: 48 h
Source text: (§1) IC50 is the concentration at which 50% growth inhibition is obtained and E max represents the efficacy of the compound at its maximum concentration, expressed as the maximum % cell inhibition achieved by the compound (see Section S6 and Figure S8 of the Supporting Information).
(§2) General method: cell lines and grown conditions
(§3) Non-small lung carcinoma NCI-H460, human colon carcinoma HCT-116, human glioma SF-268
(§4) and doxorubicin-resistance human mamma carcinoma NCI/ADR-RES cell lines, as well as
(§5) Eagle’s Minimal Essential Medium (EMEM) and RPMI1640 were purchased from the American Tissue Culture Collection (ATCC). Frozen cells were thawed in a 75 cm2 cell culture flask in RPMI
(§6) supplemented with 2 mM L-glutamine and 10% FBS and maintained at 37 °C in a 5% CO2
(§7) The inhibition of cell proliferation induced by the samples [1/Cu(II), 1 eq. cyclopeptide 1/3 eq. of
(§8) Cu(II); 2/Cu(II), 1 eq. cyclopeptide 2/5 eq. of Cu(II)]‚ was carried out by using MTT method for
(§9) HCT-116, NCI/ADR-RES and NCI-H460 cell lines. SF-268 cell growth inhibition induced by the
(§10) samples was assessed using a system based on crystal violet cell staining and subsequent
(§11) acetylation. Cells were seeded in a 96-well microplate (5000 cells/well for HCT-116, 10000
(§12) cells/well for SF-268 and 15000 cells/well for NCI/ADR-RES and NCI-H460 cell lines) in 100 μl
(§13) of growth medium and maintained at 37 °C for 24 h.
(§14) Then growth medium was replaced by fresh medium containing different concentrations of the
(§15) samples to be assayed and maintained at 37 °C in a 5% CO2 atmosphere for 48 h. After this
(§16) time, 10 μL MTT (5 mg/ml in PBS) were added to each well and maintained for 4 h at 37 °C in a
(§17) 5% CO2 atmosphere. Then 100 μL of 10% SDS in 0.01 M HCl were added to each well an
(§18) incubated for 12-14 h under the same experimental conditions. Absorbance due to formation
(§19) was detected in a Tecan infinity M1000 Pro reader using a wavelength of 595 nm. All assays
were performed with triplicate points.
b) Crystal violet cell staining
(§20) The samples dissolved in water were added, maintaining the same proportion of water in each
(§21) well (10%). After 72 h (at 37°C and in an atmosphere of 5% CO 2/95% air), the cells were fixed to
(§22) the plate with 10 μL of 11% glutaraldehyde solution, kept under agitation at room temperature,
(§23) for 15 minutes. Once fixed, the medium was removed and the cells were washed 3-4 times with
(§24) distilled water, followed by staining of the cells with 100 μL of a 0.1% crystal violet solution. This
(§25) solution was prepared by diluting 0.1g of crystal violet in 100 mL of buffer composed of 200 mM
(§26) phosphoric acid, 200 mM formic acid and 200 mM 2-(N-morpholino)-ethane sulphonic acid
(§27) (MES) at pH 6. The plate was kept shaking at room temperature for 15 minutes. The dye was
(§28) removed, washed 3-4 times with distilled water and dried. 100 μL of 10% acetic acid was then
(§29) added and kept under agitation for 15 minutes, at room temperature, so that the staining was
(§30) homogeneous in all wells. Finally, an absorbance reading of the plates was performed at a
(§31) wavelength of 595 nm (Tecan M1000 Infinite Pro). The assay was performed with triplicate points.
(§32) Data were expressed as the growth inhibition percentage calculated in basis on the equation: %
(§33) inhibition= 100 – [(AO × 100) / AT]. Where AT is the measured absorbance in wells containing
(§34) compounds and AO is the absorbance measured in blank wells (cells with medium and vehicle).
(§35) The inhibitory potency of compounds was calculated by constructing concentration-% growth
(§36) inhibition curves, and extrapolating IC50 values (concentration of compound that inhibits cells

SF-268 (human glioma) = conditions: 72 h
Source text: as §1, §2, §3, §4, §5, §6, §7, §8, §9, §10, §11, §12, §13, §14, §15, §16, §17, §18, §19
were performed with triplicate points.
b) Crystal violet cell staining
as §20, §21, §22, §23, §24, §25, §26, §27, §28, §29, §30, §31, §32, §33, §34, §35, §36

[4] = test system: NCI/ADR-RES (doxorubicin resistant ovarian carcinoma); conditions: 48 h
Source text: as §1, §2, §3, §4, §5, §6, §7, §8, §9, §10, §11, §12, §13, §14, §15, §16, §17, §18, §19
were performed with triplicate points.
b) Crystal violet cell staining
as §20, §21, §22, §23, §24, §25, §26, §27, §28, §29, §30, §31, §32, §33, §34, §35, §36

[5] = test system: NCI-H460 (lung carcinoma); conditions: 48 h
Source text: as §1, §2, §3, §4, §5, §6, §7, §8, §9, §10, §11, §12, §13, §14, §15, §16, §17, §18, §19
were performed with triplicate points.
b) Crystal violet cell staining
as §20, §21, §22, §23, §24, §25, §26, §27, §28, §29, §30, §31, §32, §33, §34, §35, §36

[6] = test system: nontransformed lung fibroblast (MRC-5)
Source text: as §1, §2, §3, §4, §5, §6, §7, §8, §9, §10, §11, §12, §13, §14, §15, §16, §17, §18, §19
were performed with triplicate points.
b) Crystal violet cell staining
as §20, §21, §22, §23, §24, §25, §26, §27, §28, §29, §30, §31, §32, §33, §34, §35, §36

NCI/ADR-RES cells [7] = experiment: Intracellular ROS generation (ROS Assay Stain 1X); assay type: cell-based; conditions: 100 μM compound with 125 μM H2O2, 1-5 h and 24 h, 1/Cu(II) equimolar
Method: Measurement of intracellular ROS levels in NCI/ADR-RES cells treated with Cu(II) ions, cyclopeptide 1, or the 1/Cu(II) metallopeptide system confirmed a time-dependent increase in the level of ROS generation. In short, after 24 h of incubation, cells were stained with ROS Assay Stain 1× and treated with 100 μM Cu(II) (CuCl2·2H2O), cyclopeptide 1, or 1/Cu(II), along with 125 μM H2O2, and fluorescence was recorded (λex = 495/λem = 520 nm) every hour for the first 5 h and again at 24 h. The experiment with the metallopeptide system was conducted by using equimolar amounts of cyclopeptide 1 and Cu(II) to prevent an excess of free copper in the medium. […] The cytotoxicity of the metallopeptide systems appears to be closely linked to their ability to enhance intracellular oxidative stress via increased ROS production, likely driven by Cu(II) accumulation within the cells.
9.2. […]
NCI/ADR-RES cells were seeded in a 96 well plate (Thermo Scientific 165305) at a density of 2,5 x 10^5 cells/ml. […] The fluorescence was measured in a microplate reader every hour for the first 5 hours, and again at 24 hours after the addition of the compounds (λex= 495 nm / λem= 520 nm). […]
Figure S15. […] Fluorescence (λex= 495 nm / λem= 520 nm) was recorded every hour for the first 5 hours, and again at 24 hours after the addition of the compounds to assess intracellular ROS generation. […]

[8] = HCT-116, MTT, 1/Cu(II) 3 equiv Cu(II), 2/Cu(II) 5 equiv Cu(II)
[9] = HCT-116, MTT, at maximum concentration
[10] = SF-268, crystal violet, 1/Cu(II) 3 equiv Cu(II), 2/Cu(II) 5 equiv Cu(II)
[11] = SF-268, crystal violet, at maximum concentration
[12] = NCI/ADR-RES, MTT, 1/Cu(II) 3 equiv Cu(II), 2/Cu(II) 5 equiv Cu(II)
[13] = NCI/ADR-RES, MTT, at maximum concentration
[14] = NCI-H460, MTT, 1/Cu(II) 3 equiv Cu(II), 2/Cu(II) 5 equiv Cu(II)
[15] = NCI-H460, MTT, at maximum concentration
[16] = MRC-5, 48 h, 1/Cu(II) 3 equiv Cu(II), 2/Cu(II) 5 equiv Cu(II)
[17] = MRC-5, 48 h, at maximum concentration

Structure (SMILES) | intracellular Cu(II) accumulation (ICP-MS) (NCI/ADR-RES cells [2]) | IC50 [3, 8] | E max (maximum % cell inhibition) [3, 9] | IC50 (SF-268 (human glioma); [10]) | E max (maximum % cell inhibition) (SF-268 (human glioma); [11]) | IC50 [4, 12] | E max (maximum % cell inhibition) [4, 13] | IC50 [5, 14] | E max (maximum % cell inhibition) [5, 15] | IC50 [6, 16] | E max (maximum % cell inhibition) [6, 17] | further results
N=C(N)NCCC[C@@H]1NC(=O)c2ccc(nc2)-c2ccc(cn2)NC(=O)CCNC(=O)[C@H](CCCNC(=N)N)NC(=O)[C@H](CCCNC(=N)N)NC(=O)[C@H](CCCNC(=N)N)NC(=O)c2ccc(nc2)-c2ccc(cn2)NC(=O)CCNC(=O)[C@H](CCCNC(=N)N)NC(=O)[C@H](CCCNC(=N)N)NC(=O)[C@H](CCCNC(=N)N)NC(=O)c2ccc(nc2)-c2ccc(cn2)NC(=O)CCNC(=O)[C@H](CCCNC(=N)N)NC(=O)[C@H](CCCNC(=N)N)NC1=O [compound 2, cyclo-(βAlaBpy-Arg3)3] (cyclo(RRR[βAla][X1]RRR[βAla][X1]RRR[βAla][X1])) | notably lower than that of the metallopeptide systems | – | – | – | – | – | – | – | – | – | – | Kd [1]: 0.24 ± 0.1 µM; E max (maximum % cell inhibition) [3]: 80 ± 1%; IC50 [3]: > 100 µM; E max (maximum % cell inhibition) (SF-268 (human glioma)): 92 ± 1%; IC50 (SF-268 (human glioma)): 16 ± 1 µM; E max (maximum % cell inhibition) [4]: 86 ± 1%; IC50 [4]: 28 ± 1 µM; E max (maximum % cell inhibition) [5]: 92 ± 1%; IC50 [5]: 21 ± 1 µM; E max (maximum % cell inhibition) ([6]; 48 h): 92 ± 1%; IC50 ([6]; 48 h): 18 ± 1 µM
O.O.[Cl][Cu][Cl] [CuCl2·2H2O, reference compound] | modest increase in intracellular copper | > 100 µM | 94 ± 1% | > 100 µM | 87 ± 1% | 99 ± 1 µM | 91 ± 1% | > 100 µM | 97 ± 1% | 79 ± 3 µM | 91 ± 1% | intracellular ROS levels (fluorescence) (NCI/ADR-RES cells [7]): moderate effect
N.N.[Cl][Pt][Cl] [cisplatin, reference compound] | – | 13 ± 1 µM | 94 ± 1% | 3.89 ± 0.08 µM | 92 ± 1% | 13 ± 1 µM | 86 ± 1% | 5.29 ± 0.46 µM | 62 ± 4% | 5.7 ± 0.22 µM | 92 ± 1% | –
